The source of these data is PMC6877959, “β-Lactoglobulin Heptapeptide Reduces Oxidative Stress in Intestinal Epithelial Cells and Angiotensin II-Induced Vasoconstriction on Mouse Mesenteric Arteries by Induction of Nuclear Factor Erythroid 2-Related Factor 2 (Nrf2) Translocation” (Oxidative Medicine and Cellular Longevity, 2019).

The nature of data set [1]: Caco-2 cell monolayer permeation (transepithelial transport). As to conditions: human, Caco-2, 21-day, transwell, apical to basolateral, HBSS 25 mM HEPES pH 7.4, 37°C, time point 120 min, UHPLC-MS/MS, means ± S.D. The class given is in vitro ADME. How it is done: (§1) The colorectal adenocarcinoma (Caco-2) cell line was purchased from ATCC (Rockville, MD, USA). Cells were maintained in high-glucose DMEM (4.5 g/L) supplemented with 2 mM L-glutamine and 10% (v/v) heat-inactivated foetal bovine serum. Cells were cultured at 37°C in a humidified 5% CO2 atmosphere. To induce enterocytic Caco-2 differentiation, cells were seeded in a 12-well multiwell in transwell inserts (PET membrane, 0.4 μm pore size, 1.12 cm^2 surface area) at 2.6 × 10^5 cells/cm^2 and maintained for 21 days in complete medium. The medium was changed every second day. By 21 days, the monolayers become completely differentiated.
(§2) The integrity of the monolayers was evaluated by measurement of the transepithelial electrical resistance (TEER) using an EVOM2 epithelial voltohmmeter (World Precision Instruments, Sarasota, FL, USA). Only monolayers showing TEER higher than 300 Ω × cm^2 were then used for transport experiments. The integrity of the monolayers was checked before, during, and after the experiment. The filters were washed for 15-20 min at 37°C adding prewarmed Hank's balanced salt solution buffered with 25 mM HEPES and NaHCO3 (0.35 g/L) at pH 7.4 to the apical (0.4 mL) and to the basolateral (1.2 mL) transwell compartments, as previously described. For transport experiments, donor solution containing BRP2 peptide at the desired concentration (100-1 μM) was added to the apical compartment for the apical to basolateral (absorptive) direction. Samples from the receiving compartment were collected at different time points up to 120 min (15, 30, 60, 90, and 120 min). Samples from the donor compartment were collected at time 0 and at the end of the experiment (120 min) for the calculation of the mass balance.
(§3) Samples were stored at −20°C until UHPLC-MS/MS analyses to measure the concentration of BRP2 in both compartments (for detailed conditions, see Supporting Information ).
(§4) The apparent permeability coefficient (Papp) was calculated as described according to (1) Papp=dMR^t/dt×1/A×CD0, where MR is the amount of substance in the receiver chamber, A (cm^2) is the surface area of the barrier, and CD0 (μM) is the initial donor concentration. The reduction in donor concentration was also taken after every sampling (see Supporting Information ).
(§5) Instead, for the quantification of BRP2 in donor and receiver chamber, the stock solution was diluted with fresh HBSS to a series of concentrations ranged of 125-0.5 nM to establish the calibration curve (y = 0.000001x – 0,000363; R^2 ≥ 0.9997).
(§6) The apparent permeability values of BRP2 were calculated according to the Eq. 1. This calculation requires that the sink conditions are fulfilled, that is, the ratio CR/CD is less than 0.1 at each sampling point used in the analysis. […] The donor concentration was recalculated by subtracting the cumulative amount transported to the receiver chamber for each time interval:
(§7) CD (ti) and CR (ti) (μM): donor and receiver chamber concentrations calculated at each sample occasion (i) from the donor and receiver concentrations at the previous occasion CD (ti–1) and CR (ti–1), respectively; f=1–VS/VR: sample replacement diluition factor; VS (cm^3): sample volume; VR (cm^3): receiver chamber volume; VD (cm^3): donor chamber volume. ^[28]
(§8) recovery (%) = (CD(fin) × VD +∑ (CS(t) × VS(t)) + CR(fin) × VR(fin)) × 100 / (CD(0) × VD(0)) […]
For orientation: Caco-2 monolayers are a common model of the intestinal barrier.

Data set [2] has as its system Caco-2 cell monolayer. Described as above. The class given is in vitro ADME. As to conditions: UHPLC-MS/MS. As to the method: as §1, §2, §3, §4, §5, §6, §7, §8
The test system of data set [3] is Caco-2 cell monolayer. As to the kind of experiment: Immunofluorescence of Caco-2 monolayers after transport (zonulin-1, integrity). The class given is cell-based. As to conditions: after transport studies, all the concentrations tested. How it is done: The transwell membranes from TEER experiments were washed with PBS and fixed with 4% paraformaldehyde (PFA) for 15 min. Membranes were then washed in PBS and blocked with blocking solution (0.1% Triton, 1% BSA, 0.02% sodium azide, and 50 mM ammonium chloride) for 20 min at room temperature in the dark. Afterwards, they were incubated with an anti-zonulin 1 antibody (#402200, Invitrogen, Thermo Fisher Scientific, Waltham, MA, USA) at the final concentration of 2 μg mL^−1 at room temperature for 2 hours. Immunofluorescence staining was obtained by incubating the membranes for 90 min with Alexa Fluor 488 donkey anti-rabbit IgG (#A31573) at the final concentration of 4 μg mL^−1 (Invitrogen). The nuclei were counterstained with DAPI (1 : 2000). Membranes were cut down with an operating knife blade along the margin of the chamber and were mounted on slides using VectaMount solution (AQ Vector Laboratories, Burlingame, CA, USA). Slides were examined under a Nikon fluorescence inverted microscope (Nikon Instruments Europe, Firenze, Italy) and then analyzed through ImageJ software as previously described.
Figure S3: Fluorescence micrograph of the Caco-2 cell monolayers. Caco-2 cell monolayers treated with BRP2 (50 µM, 2 h) from TEER experiments were stained for tight junction protein expression of zonulin-1 (FITC, green). Nuclei were counterstained with DAPI (blue). […]

Ends that are not written are not given here.

One may read the Papp A→B as how fast a substance crosses the layer from the apical side. Lower therefore signals slow passage. For “SFNPTQL [BRP2, Ser-Phe-Asn-Pro-Thr-Gln-Leu]”, the Papp A→B at 120 min, 1 μM in data set [1] (BRP2 1 μM) was 0.53 ± 0.15 ×10⁻⁶ cm/s. For the same substance, the Papp A→B at 120 min, 50 μM in data set [1] (BRP2 50 μM) turned out to be 0.2 ± 0.05 ×10⁻⁶ cm/s. Further, the Papp A→B at 120 min, 100 μM in data set [1] (BRP2 100 μM) was determined as 0.27 ± 0.07 ×10⁻⁶ cm/s. In the data set with Caco-2 cell monolayer [2] (BRP2 10 μM, Caco-2, 21-day, transwell, apical to basolateral, HBSS 25 mM HEPES pH 7.4, 37°C, time point 120 min, means ± S.D.), the Papp is recorded as 0.53 ± 0.01 10^-6 cm/s. The “mass balance (recovery)” value with Caco-2 cell monolayer [2] (Caco-2 transport, donor sampled at 0 and 120 min) is recorded as “more than 80%”. For the same substance, the “Caco-2 cell monolayer integrity (zonulin-1 expression)” value with Caco-2 cell monolayer [3] is on record as “preserved”.
